# Several values for one entry are separate records, joined by “and”; a condition that tells them apart may be missing. Equal values may be shown once.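 Protocol summary: plate cells (96-well), add compound at 5 concentrations, incubate 48 h, interpolate endpoints linearly. GI50 = concentration required for 50% inhibition of growth. TGI: concentration producing complete growth inhibition.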
# Legend:
# Test in all cases: NCI anticancer screen, dose series, 48 h
# [1] = tested on: HL-60(TB) leukemia
# [2] = tested on: PC-3 prostate
# [3] = tested on: HS 578T breast
# [4] = tested on: UO-31 renal
# [5] = tested on: SF-539 CNS
# [6] = tested on: HCT-116 colon
# [7] = tested on: LOX IMVI melanoma
# [8] = tested on: ACHN renal
# [9] = tested on: 786-0 renal
# [10] = tested on: MDA-MB-435
Compound,GI50 [1],TGI [1],GI50 [2],TGI [2],GI50 [3],TGI [3],GI50 [4],TGI [4],GI50 [5],TGI [5],GI50 [6],TGI [6],GI50 [7],TGI [7],GI50 [8],TGI [8],GI50 [9],TGI [9],GI50 [10],TGI [10]
COC(=O)[C@]1(C)CCC[C@@]2(C)C3=C(CC[C@H]12)C[C@@H](CC(OC(C)=O)OC(C)=O)[C@@H](C)C3,14.4 µM,> 50 µM,11.4 µM,> 29 µM,10.9 µM,23 µM,10.6 µM,24.8 µM,10.7 µM,20.3 µM,8.21 µM,18.9 µM,> 50 µM,> 50 µM,13.9 µM,> 28.2 µM,8.97 µM,17.2 µM,9.96 µM,20.5 µM
C=C1C(=O)O[C@@H]2/C=C(/C)[C@@H](OC(C)=O)C[C@@H](O)/C(C)=C\[C@@H](OC(=O)[C@]3(C)O[C@@H]3C)[C@@H]12,–,7.85 µM,–,32.3 µM,–,> 100 µM,–,–,–,46.5 µM,–,13.6 µM,–,20.4 µM,–,26.8 µM,–,15.8 µM,–,28.8 µM
Cc1c(C(=O)Nc2ccc(N3C[C@@H](C)O[C@@H](C)C3)nc2)cccc1-c1ccc(OC(F)(F)F)cc1,7.25 µM and 22.7 µM,> 100 µM,5.44 µM and 6.68 µM,27 µM and 36.8 µM,9.09 µM and 14.1 µM,49.3 µM and 43.8 µM,3.52 µM and 8.63 µM,19 µM and 27 µM,6.74 µM and 10.5 µM,22 µM and 27.3 µM,3.4 µM and 3.85 µM,> 100 µM,7.11 µM and 7.68 µM,31.9 µM and 67.5 µM,5.6 µM and 14.4 µM,23.3 µM and 44.1 µM,3.61 µM and 5.77 µM,21 µM and 30 µM,7.29 µM and 5.89 µM,49.2 µM and 38 µM
CN(C(=O)C(C)(C)C)c1ccccc1I(=O)=O,3.81 µM,> 100 µM,–,–,> 100 µM,> 100 µM,> 100 µM,> 100 µM,> 100 µM,> 100 µM,–,–,> 100 µM,> 100 µM,> 100 µM,> 100 µM,> 100 µM,> 100 µM,> 100 µM,> 100 µM
CC1=CC2(C)/C=C(C)/C=C\CC(O)/C=C3/C=CC(=C4C(=O)OC2(CC1C)C4=O)OC3 (centres undefined),0.6 µM,> 20.5 µM,1.45 µM,7.89 µM,2.25 µM,6.97 µM,1.46 µM,3.06 µM,2.49 µM,6.72 µM,0.541 µM,5.02 µM,1.63 µM,3.2 µM,1.32 µM,2.67 µM,2.25 µM,4.94 µM,2 µM,5.12 µM
NC(=O)NNC/C(Cl)=C(\Cl)C(=O)O,–,> 100 µM,–,–,–,–,–,> 100 µM,–,> 100 µM,–,> 100 µM,–,> 100 µM,–,> 100 µM,–,> 100 µM,–,–
COc1nn(C)cc1Nc1nccc(-c2c[nH]c3c(NC(=O)[C@@H](C)N4CCN(C)CC4)cccc23)n1,28.9 µM,> 100 µM,51.2 µM,> 100 µM,27 µM,> 100 µM,20.7 µM,> 100 µM,18 µM,38.4 µM,34.3 µM,> 100 µM,17.1 µM,36.5 µM,37.6 µM,> 100 µM,28.8 µM,> 100 µM,24.3 µM,82.3 µM
C/C(=N\N=C(N)N)C(CN1CCOCC1)C(c1ccccc1)c1c(O)c2ccccc2oc1=O (centres undefined),–,> 100 µM,–,–,–,–,–,–,–,> 100 µM,–,> 100 µM,–,> 100 µM,–,> 100 µM,–,> 100 µM,–,–
CCC(=O)NC1=C(Cl)C(=O)C(NC(=O)CC)=C(Cl)C1=O,2.42 µM,> 23.7 µM,8.5 µM,21 µM,26.6 µM,69.7 µM,5.97 µM,11.4 µM,> 44.4 µM,> 58.2 µM,6.89 µM,17.3 µM,16.3 µM,31.2 µM,5.6 µM,10.9 µM,18.7 µM,33.4 µM,18.9 µM,33.8 µM
C[C@]12CC[C@H]3[C@@H](CC[C@]4(O)C[C@@H](O)CC[C@]34C=O)[C@@]1(O)CC[C@@H]2C1=CC(=O)OC1,–,47.6 µM,–,4.56 µM,–,> 100 µM,–,2.91 µM,–,0.967 µM,–,0.595 µM,–,2.46 µM,–,1.49 µM,–,> 100 µM,–,1.83 µM
C=CC1=C(C)C(/C=c2\[nH]/c(=C/c3[nH]c(CC4NC(=O)C(C)/C4=C\C)c(C)c3CCC(=O)O)c(CC(=O)O)c2C)=NC1=O (centres undefined),–,> 100 µM,–,–,–,–,–,> 100 µM,–,> 100 µM,–,> 100 µM,–,> 100 µM,–,> 100 µM,–,> 100 µM,–,–
CC(=O)C(CN1C(=O)c2ccccc2C1=O)C(C)=O,–,–,–,> 100 µM,–,> 100 µM,–,> 100 µM,–,> 100 µM,–,> 100 µM,–,–,–,> 100 µM,–,> 100 µM,–,> 100 µM
CCCCCCC(=O)NC1=C(N2CC2)C(=O)C(NC(=O)CCCCCC)=C(N2CC2)C1=O,3.17 µM,> 100 µM,1.61 µM,> 100 µM,3.11 µM,> 100 µM,6.15 µM,> 100 µM,2.37 µM,> 100 µM,–,–,3.03 µM,> 100 µM,2.76 µM,> 100 µM,4.25 µM,> 100 µM,1.56 µM,3.11 µM
O=C1CCC2(O)c3ccccc3C2Cc2ccccc21 (centres undefined),–,> 100 µM,–,–,–,–,–,–,–,> 100 µM,–,> 100 µM,–,> 100 µM,–,> 100 µM,–,> 100 µM,–,–
O=C(Nc1nc2c(C(F)(F)F)cccc2s1)c1cc(Cl)ccc1O,–,–,0.302 µM,30.3 µM,0.268 µM,26.3 µM,0.265 µM,11.7 µM,0.286 µM,1.96 µM,0.352 µM,11.2 µM,0.32 µM,10.8 µM,0.295 µM,0.961 µM,0.337 µM,12.2 µM,0.323 µM,> 100 µM
Cc1ccc(NC(=O)COc2ccc(Cl)cc2)cc1Cl,–,–,–,> 100 µM,–,> 100 µM,–,> 100 µM,–,> 100 µM,–,> 100 µM,–,> 100 µM,–,> 100 µM,–,> 100 µM,–,> 100 µM

# From PubChem BioAssay (NCI)
